{
  "source": "paper PMC9032561",
  "about": "“Simultaneous Inhibitory Effects of All-Trans Astaxanthin on Acetylcholinesterase and Oxidative Stress” (Marine Drugs, 2022)",
  "biological_target": "T1, acetylcholinesterase (Electrophorus electricus, UniProt O42275)",
  "T1 construct": "gene ache",
  "T1 sequence (O42275 24-633)": "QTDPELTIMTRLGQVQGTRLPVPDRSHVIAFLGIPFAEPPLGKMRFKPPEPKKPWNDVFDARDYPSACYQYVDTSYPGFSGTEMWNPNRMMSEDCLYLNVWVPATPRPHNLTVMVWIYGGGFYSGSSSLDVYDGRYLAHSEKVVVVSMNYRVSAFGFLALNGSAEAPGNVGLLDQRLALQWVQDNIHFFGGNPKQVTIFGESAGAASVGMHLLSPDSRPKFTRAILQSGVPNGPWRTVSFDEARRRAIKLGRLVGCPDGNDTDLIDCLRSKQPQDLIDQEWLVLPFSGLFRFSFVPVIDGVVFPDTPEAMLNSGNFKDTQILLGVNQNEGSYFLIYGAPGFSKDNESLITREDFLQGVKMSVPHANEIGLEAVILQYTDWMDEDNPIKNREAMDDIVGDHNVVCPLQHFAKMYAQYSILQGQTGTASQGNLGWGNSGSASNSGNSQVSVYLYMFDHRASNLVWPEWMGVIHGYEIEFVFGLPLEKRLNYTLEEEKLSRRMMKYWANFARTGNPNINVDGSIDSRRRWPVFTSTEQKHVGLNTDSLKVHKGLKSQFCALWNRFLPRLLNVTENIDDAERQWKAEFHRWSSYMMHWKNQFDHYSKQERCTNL",
  "test": "Ellman assay with Lineweaver-Burk kinetics; supported by fluorescence quenching and circular dichroism",
  "type": "biochemical",
  "data": [
    {"smiles": "CC1=C(/C=C/C(C)=C/C=C/C(C)=C/C=C/C=C(C)/C=C/C=C(C)/C=C/C2=C(C)C(=O)[C@@H](O)CC2(C)C)C(C)(C)C[C@H](O)C1=O", "note": "[all-trans astaxanthin]", "values": [
      {"measurement": "IC50", "result": 8.64, "unit": "µM"}
    ]}
  ]
}
